Measured values reported in patent US20180042953A1, “ANTIBACTERIAL INJECTABLE PHARMACEUTICAL COMPOSITION” (OBSHCHESTVO S OGRANICHENNOY OTVETSTVENNOSTYU "VIK - …, priority 2012, published 2018).

Test: Azithromycin solubility in organic solvents
Type: physicochemical

SMILES: CC[C@H]1OC(=O)[C@H](C)[C@@H](O[C@H]2C[C@@](C)(OC)[C@@H](O)[C@H](C)O2)[C@H](C)[C@@H](O[C@@H]2O[C@H](C)C[C@H](N(C)C)[C@H]2O)[C@](C)(O)C[C@@H](C)CN(C)[C@H](C)[C@@H](O)[C@]1(C)O [Azithromycin, (2R,3S,4R,5R,8R,10R,11R,12S,13S,14R)-13-[(2,6-dioxy-3-C-methyl-3-O-methyl-a-L-ribohexopyranozyl)oxy]-2-ethyl-3,4, 10-trihydroxy-3,5,6,8,10,12,14-heptamethyl-11-[[3,4,6-trideoxy-3-(dimethylamino)-b-D-xylo-hexapyranozyl]oxy]-1-ox-6-azacyclopentadecane-15-one]
- Maximum azithromycin conc. (solvent 2-Pyrrolidone): 28.9%
- Maximum azithromycin conc. (solvent 3,3-dimethyl-2-pyrrolidone): 26.4%
- Maximum azithromycin conc. (solvent Dimethylacetamide): 32.1%
- Maximum azithromycin conc. (solvent Dimethylsulfoxide): 26.4%
- Maximum azithromycin conc. (solvent N-ethoxy-2-pyrrolidone): 23.3%
- Maximum azithromycin conc. (solvent N-ethyl-2-pyrrolidone): 25.8%
- Maximum azithromycin conc. (solvent N-methyl-2-pyrrolidone): 31.2%
- Maximum azithromycin conc. (solvent N-octyl-2-pyrrolidone): 21.5%
- Maximum azithromycin conc. (solvent Propylene glycol): 13.4%
- Maximum azithromycin conc. (solvent Transcutol): 10.2%
